O=C1NC(=O)c2ccccc21
solubility (mole fraction)
Conditions | in acetone | in acetonitrile | in ethanol | in ethyl acetate | in isobutanol | in isopropanol | in methanol | in n-butanol | in n-propanol | in toluene
283.15 K | 0.00783 | 0.00145 | 0.00116 | 0.00388 | 0.0014 | 0.00159 | 0.00129 | 0.00166 | 0.00156 | 0.000253
285.65 K | 0.00854 | 0.00161 | 0.00133 | 0.00441 | 0.00155 | 0.00175 | 0.00142 | 0.00185 | 0.00173 | 0.000295
288.15 K | 0.00935 | 0.0018 | 0.00151 | 0.00498 | 0.00171 | 0.00198 | 0.00162 | 0.00203 | 0.00188 | 0.000348
290.65 K | 0.0101 | 0.00209 | 0.0017 | 0.00557 | 0.0019 | 0.0022 | 0.00183 | 0.00221 | 0.00203 | 0.000401
293.15 K | 0.011 | 0.00238 | 0.00193 | 0.00615 | 0.00206 | 0.00247 | 0.0021 | 0.00243 | 0.00222 | 0.000456
295.65 K | 0.0119 | 0.00271 | 0.00215 | 0.00677 | 0.00222 | 0.0027 | 0.00236 | 0.00266 | 0.00242 | 0.000514
298.15 K | 0.0128 | 0.00305 | 0.0024 | 0.00749 | 0.00242 | 0.00298 | 0.0026 | 0.00285 | 0.00263 | 0.000577
300.15 K | 0.0137 | 0.00335 | 0.0026 | 0.00813 | 0.0026 | 0.0033 | 0.00288 | 0.00308 | 0.00282 | 0.000624
303.15 K | 0.0149 | 0.00385 | 0.00302 | 0.00879 | 0.00292 | 0.00365 | 0.00317 | 0.00336 | 0.00308 | 0.000694
305.65 K | 0.0159 | 0.0043 | 0.00335 | 0.0097 | 0.00315 | 0.00402 | 0.00346 | 0.00362 | 0.00339 | 0.000756
308.15 K | 0.017 | 0.00472 | 0.00369 | 0.0105 | 0.0034 | 0.00438 | 0.00373 | 0.00393 | 0.00369 | 0.000828
310.65 K | 0.0181 | 0.00518 | 0.00409 | 0.0114 | 0.00368 | 0.00479 | 0.00405 | 0.00424 | 0.00399 | 0.0009
313.15 K | 0.0194 | 0.00577 | 0.00462 | 0.0125 | 0.00398 | 0.00523 | 0.00445 | 0.00456 | 0.0043 | 0.000969
315.65 K | 0.0209 | 0.00631 | 0.00523 | 0.0138 | 0.00428 | 0.00575 | 0.00483 | 0.0049 | 0.00466 | 0.00105
318.15 K | 0.0221 | 0.00686 | 0.00582 | 0.0152 | 0.00469 | 0.00632 | 0.00525 | 0.0054 | 0.005 | 0.00114

— BigSolDB 2.1
